{"source": "patent US20240335395A1", "about": "“COMPOSITIONS AND METHODS FOR PREVENTING AND/OR TREATING DISEASE ASSOCIATED WITH IL-23 EXPRESSION” (ALLSPIM, priority 2021, published 2024)", "key": {"IL-10": {"test_system": "IL-10", "test": "MSU-induced IL-10 in knee joint tissue (multiplex microassay)", "type": "in vivo, mouse", "settings": "2,4-D 100 mg/kg, DEX 0.5 mg/kg", "experimental": "(§1) Mice (six per group) were treated with 2,4-D (100 mg/kg or 20 mg/kg, i.p.), CLC (1 mg/kg or 0.2 mg/kg, i.p.), DEX (0.5 mg/kg or 0.1 mg/kg, i.p.), or vehicle (20% polyoxyethylenesorbitan monooleate (Tween 80) plus PBS) 30 min before intra-articular stimulus with MSU (100 μg/10 μL, i.a.). Six mice with intra-articular injection with PBS alone served as a negative control.\n(§2) Induction of MSU-Induced Knee Joint Inflammation. Male ICR (CD-1) mice (35-45 g, 10-12 weeks) were purchased from VitalRiver Inc (Beijing, China) and were kept in an animal care facility under controlled temperature of 21±1° C., humidity, and on a light/dark cycle, with ad libitum access to water and standard laboratory chow diet. Animal care and handling procedures were approved by the Animal Ethics Committee of GZUCM (Guangzhou University of Chinese Medicine). All efforts were made to minimize animal suffering and to reduce the number of animals used. Joint inflammation was induced by the intra-articular (i.a.) administration of MSU (200 μg/20 μl) into the right and left knee joints of mice under inhaled 3% isoflurane anesthesia. Control animals received an injection (i.a.) of sterile PBS (20 μL).\n(§3) Cytokine Measurement. Mice were anesthetized and sacrificed. Knee joints were collected and frozen in liquid nitrogen. Samples were then homogenized in 500 μl of buffer containing protease inhibitors, centrifuged (3600 rpm, 4° C., 15 min) and supernatants were used to determine Th1/Th2/Th17 cytokine levels using a multiplex microassay (Qantibody® mouse TH17 Array 1 kit, Cat. No.: QAM-TH17-1; RayBiotech, Norcross, GA). Results were expressed as picograms (pg) of cytokine/mg of tissue.\n(§4) Statistical Analysis. […] For in vitro experiments, microassays were performed in quadruplicate. p<0.05 was considered significant (*p<0.05, **p<0.01, ***p<0.001)."}, "TNF-alpha": {"test_system": "TNF-alpha", "test": "MSU-induced TNF-alpha in knee joint tissue (multiplex microassay)", "type": "in vivo, mouse", "settings": "2,4-D 100 mg/kg, CLC 1 mg/kg, DEX 0.5 mg/kg", "experimental": "as §1, §2, §3, §4"}, "SOD1 G93A mice": {"test_system": "SOD1 G93A mice", "test": "SOD1 G93A mouse model of ALS, motor symptoms and neuroscore", "type": "in vivo", "settings": "50 mg/kg daily oral in gel from 21 days post-natal", "description": "Animals. The ALS mouse model is the SOD1 G93A (Gurney et al. Science 1994). Mutations in the SOD1 gene represent about 20% of the mutations in human familiar forms of ALS. Mice with multiple human transgenes with the G93A mutation in the SOD1 gene develop a progressive muscle paralysis and a loss of spinal motor neurons as in human patients. We used the high expressor lines (Jackson Labs #002726 B6SJL-Tg(SOD1*G93A)1 Gur/J) that contains at least 15 copies of the human transgene. SOD1 G93A males are crossed with B6/SJL females (Janvier Labs #SH-B6SJL-F1; hybrid model B6SJLF1/JRj). Genotyping allows us to identify the transgenic animals in the litter.\nSymptoms progression is assessed using a neuroscore grid as in Hatzipetros et al. JoVE 2015. Mice are euthanized when they are transitioning from neuroscore 2 to neuroscore 3 (full paralysis of one hindlimb). This transition happens about 120-130 days post-natal in our breeding conditions and in the absence of the 2,4-D treatment. Non transgenic littermates are used as control animals.\nChronic administration of 2,4-D in mice. […] Daily delivery of the drug for a long time period (about 100 days) is not compatible with IP injections for ethics considerations and also because of the infection risk. We then rely on oral administration in a gel using a method modified from Lei Zhang, Star Protocol 2021. Briefly, the gel is produced by mixing alimentary gelatin (8%, Vahiné) in a 2% sucralose solution (Myprotein, zero calory, no flavor) and by heating this mixture at 60° C. for 20-30 minutes until clarification. An artificial flavor, for instance “cheese flavor” (Arôme Alimentaire Emmental 58 ml Cuisineaddict), 2 microliters/milliliter), may be added to this preparation along with some kibble grinds to powder (the same kibble as the one used in the house facility for ordinary diet) for improving palatability. This mixture is then aliquoted in individual daily portions of 315 microliters. 1 to 2 mg of 2,4-D (depending on the mouse body weight, 50 mg of 2,4-D per kg of mouse body weight) is added to each portion while the mixture is still warm (2,4-D is not added in the vehicle portions given to untreated animals). This mixture solidifies in a jelly form upon cooling. The gel can be kept in a fridge (4° C.) for 6 days. We usually have 4 mice (males or females) per cage. To feed the mice with 2,4-D we remove the ordinary kibbles (sometime 4 hours before) and we physically isolated each mouse in a corner of the cage with a plexiglass cross placed in the cage to separate four compartments. One portion jelly is placed at the bottom of each compartment until the mouse has eaten it. In the case the mouse has not eaten the full portion after 3 hours, we evaluate how much was taken by the mouse. […]"}, "IL-17": {"test_system": "IL-17", "test": "IL-17 gene expression in RA-patient synovial cells (RT-qPCR)", "type": "cell-based, human", "settings": "2 h", "experimental": "Synovial fluid was freshly collected from 20 patients with rheumatoid arthritis (RA) by arthrocentesis. At two hours after treatment or not with 2,4-D, RA-patient synovial cells were directly lysed using TRIzol reagent (Invitrogen, USA) followed by RNA extraction according to the manufacturer's protocol. Finally, RNA was dissolved in 10 μL DEPC-treated water, quantified on a NanoDrop 2000 spectrophotometer (Thermo Scientific Inc., USA), and reverse-transcribed using the Super Script III First-Strand Synthesis System for RT-PCR kit (Thermo Scientific, USA) according to the manufacturer's protocol. PCR was performed in duplicate using SYBR Green qPCR master mix (Takara Biomedical Technology Co., Ltd, Dalian, China) on an ABI 7500 Real-Time PCR System (Thermo, USA). The cycling program was as follows: denaturation at 95° C. for 15 s, 40 cycles of 95° C. for 15 s and extension at 60° C. for 60 s, followed by melt curve generation. The ΔΔCT method was used to quantify relative mRNA levels as described in Example 1 above. The primer sequences specific for human IL-17 genes (hu-IL-17 Forward: 5′-[…]-3′; hu-IL-17 Reverse: 5′-GGCACTTTGCCTCCCAGAT-3′) (SEQ ID NOs 8 and 9, respectively) and IL-23 (see Example 1, above) were used."}}}
{"smiles": "COc1cc(O)c(OC)c(O)c1C(=O)/C=C/c1ccccc1", "note": "[2,4-D, 2′,4′-dihydroxy-3′,6′-dimethoxychalcone]", "values": [{"measurement": "decrease of IL-10 in knee joint tissue", "setting": "IL-10", "value": 1.7, "unit": "fold"}, {"measurement": "decrease of TNF-alpha in knee joint tissue", "setting": "TNF-alpha", "value": 1.9, "unit": "fold"}, {"measurement": "neuroscore progression (from 0 to 3)", "setting": "SOD1 G93A mice", "value": "tends to slow down"}, {"measurement": "time at which neuroscore 3 is reached (survival time)", "setting": "SOD1 G93A mice", "value": "tends to be delayed"}, {"measurement": "time at which the axial tonus is lost, compared with vehicle", "setting": "SOD1 G93A mice", "value": "significantly extends"}, {"measurement": "time at which the full hindlimb extension is lost, compared with vehicle", "setting": "SOD1 G93A mice", "value": "significantly extends"}, {"measurement": "decrease of IL-17 expression", "setting": "IL-17; 1 μg/ml", "value": 23, "unit": "fold"}, {"measurement": "inhibition of IL-17 expression", "setting": "IL-17; 5 μg/ml", "value": 60, "unit": "fold"}]}
